Data: ChEMBL document CHEMBL1201862, “PubChem BioAssay data set” (2004)
Where “and” joins values, the source holds several entries; their conditions need not be identical. Identical values can stand only once.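 Method: 48-hour compound exposure of cells in 96-well plates, five concentrations, linear interpolation of endpoints. GI50: concentration for 50% inhibition of growth.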 Calls of active or inactive are those of the source. Rule as the data show it: active = GI50 up to about 1.1 µM and inactive = higher.

Experiments:
Assay in all cases: NCI anticancer screen, dose series, 48 h
SF-539 = system: SF-539
BT-549 = system: BT-549
MDA-MB-435 = system: MDA-MB-435
SR = system: SR
RXF 393 = system: RXF 393
MCF7 = system: MCF7
COLO 205 = system: COLO 205
SK-MEL-28 = system: SK-MEL-28
EKVX = system: EKVX
HCT-15 = system: HCT-15
MOLT-4 = system: MOLT-4
MDA-MB-231 = system: MDA-MB-231
Hs-578T = system: Hs-578T
SK-MEL-2 = system: SK-MEL-2
SK-MEL-5 = system: SK-MEL-5
NCI-H460 = system: NCI-H460
ACHN = system: ACHN
PC-3 = system: PC-3
K562 = system: K562
SNB-75 = system: SNB-75

Row | SMILES | GI50 (SF-539) | GI50 (BT-549) | GI50 (MDA-MB-435) | GI50 (SR) | GI50 (RXF 393) | GI50 (MCF7) | GI50 (COLO 205) | GI50 (SK-MEL-28) | GI50 (EKVX) | GI50 (HCT-15) | GI50 (MOLT-4) | GI50 (MDA-MB-231) | GI50 (Hs-578T) | GI50 (SK-MEL-2) | GI50 (SK-MEL-5) | GI50 (NCI-H460) | GI50 (ACHN) | GI50 (PC-3) | GI50 (K562) | GI50 (SNB-75)
1 | CCOC(=O)C1(C(=O)OCC)C=C(c2ccccc2)N(C2OC(COC(C)=O)C(OC(C)=O)C(OC(C)=O)C2OC(C)=O)C1=S (configuration not stated) | > 100 µM (inactive) | 72.3 µM (inactive) | 54 µM (inactive) | > 100 µM (inactive) | > 100 µM (inactive) | 44.7 µM (inactive) | > 100 µM (inactive) | > 100 µM (inactive) | > 100 µM (inactive) | > 100 µM | 42.4 µM (inactive) | > 100 µM (inactive) | 68.7 µM (inactive) | 36.8 µM (inactive) | > 100 µM (inactive) | > 100 µM (inactive) |  |  |  | 
2 | CN(c1ccccc1)S(=O)(=O)c1ccc([N+](=O)[O-])cc1 | > 100 µM (inactive) | > 100 µM (inactive) | > 100 µM (inactive) | > 100 µM (inactive) | > 100 µM (inactive) | > 100 µM (inactive) | > 100 µM (inactive) | > 100 µM (inactive) | > 100 µM (inactive) | > 100 µM |  | 79.3 µM (inactive) |  | > 100 µM (inactive) |  | > 100 µM (inactive) | > 100 µM (inactive) | 89.5 µM (inactive) |  | 
3 | CC(=O)Nc1nnc(S(C)(=O)=O)s1 | > 100 µM (inactive) | > 100 µM (inactive) | > 100 µM (inactive) | > 100 µM (inactive) | > 100 µM (inactive) | > 100 µM (inactive) | > 100 µM (inactive) | > 100 µM (inactive) | > 100 µM (inactive) | > 100 µM | > 100 µM (inactive) |  |  |  |  | > 100 µM (inactive) | > 100 µM (inactive) | > 100 µM (inactive) | > 100 µM (inactive) | 
4 | CC(=O)OC1OC(C2c3cccc(O)c3C(=O)c3c(O)cc(CO)cc32)C(O)C(O)C1O (configuration not stated) | 2 µM (inactive) and 1.95 µM (inactive) | 4.66 µM (inactive) and 5.7 µM (inactive) | 3.72 µM (inactive) and 3.19 µM (inactive) | 2.67 µM (inactive) and 1.93 µM (inactive) | 9.4 µM (inactive) and 6.84 µM (inactive) | 5.04 µM (inactive) and 4.75 µM (inactive) |  | 2.92 µM (inactive) | 3.78 µM (inactive) and 2.64 µM (inactive) | 3.37 µM and 3.51 µM | 4.13 µM (inactive) and 4.58 µM (inactive) |  | 2.31 µM (inactive) and 2.22 µM (inactive) | 2.32 µM (inactive) and 2.74 µM (inactive) | 1.53 µM (inactive) and 1.68 µM (inactive) | 3.43 µM (inactive) and 3.48 µM (inactive) |  | 3.01 µM (inactive) and 2.32 µM (inactive) | 3.16 µM (inactive) and 3 µM (inactive) | 3.27 µM (inactive) and 5.27 µM (inactive)
5 | O=c1[nH]ncc2[nH]c3c(c12)CCCc1ccccc1-3 | 30.1 µM (inactive) | 32.9 µM (inactive) | 25.7 µM (inactive) |  | 15.1 µM (inactive) | 29.4 µM (inactive) | 20.5 µM (inactive) |  | 4.92 µM (inactive) | 28.5 µM | 17.5 µM (inactive) |  | 5.53 µM (inactive) | 34.9 µM (inactive) | 22.4 µM (inactive) | 29.7 µM (inactive) | 32.8 µM (inactive) | 64.1 µM (inactive) | 12.9 µM (inactive) | 
6 | CCOC(=O)C(=CNC(=S)c1ccncc1)C(=O)OCC | > 100 µM (inactive) |  | > 100 µM (inactive) | > 100 µM (inactive) | > 100 µM (inactive) | > 100 µM (inactive) | > 100 µM (inactive) | > 100 µM (inactive) | > 100 µM (inactive) | > 100 µM | > 100 µM (inactive) | > 100 µM (inactive) | > 100 µM (inactive) | > 100 µM (inactive) | > 100 µM (inactive) | > 100 µM (inactive) | > 100 µM (inactive) | > 100 µM (inactive) | > 100 µM (inactive) | 25.6 µM (inactive)
7 | CCOC(=O)C(Cc1ccc2c(c1)CCC2)(Cc1ccc2c(c1)CCC2)C(=O)OCC | 81.7 µM (inactive) |  | 44.6 µM (inactive) | 19 µM (inactive) | 23.4 µM (inactive) | 52.6 µM (inactive) |  | 51.5 µM (inactive) | 17.4 µM (inactive) | 61.7 µM | 23.6 µM (inactive) | 47.1 µM (inactive) | > 100 µM (inactive) | 35.6 µM (inactive) | 33.8 µM (inactive) | 51.3 µM (inactive) | > 100 µM (inactive) | 32.5 µM (inactive) | 58.5 µM (inactive) | > 100 µM (inactive)
8 | C=C(CCC/C(C)=C/C=C/[C@H](C)CCCc1ccoc1)C[C@@H]1OC(=O)[C@H](C)[C@@H]1O | 8.63 µM (inactive) | 8.69 µM (inactive) | 9.06 µM (inactive) | 11.8 µM (inactive) | 6.67 µM (inactive) | 10.8 µM (inactive) | 12.6 µM (inactive) | 7.41 µM (inactive) | 9.84 µM (inactive) | 11.4 µM | 15.3 µM (inactive) | 9.89 µM (inactive) |  | 9.14 µM (inactive) | 8.04 µM (inactive) | 12.5 µM (inactive) | 9.18 µM (inactive) | 8.65 µM (inactive) | 13.7 µM (inactive) | 8.75 µM (inactive)
9 | CCN(CC)c1c(-c2c(N(CC)CC)c(OC(C)=O)c3sccn3c2=O)c(=O)n2ccsc2c1OC(C)=O | 85.5 µM (inactive) | 32 µM (inactive) | > 100 µM (inactive) |  |  |  | > 100 µM (inactive) | > 100 µM (inactive) | > 100 µM (inactive) | > 100 µM | > 100 µM (inactive) | 21.1 µM (inactive) | 38.8 µM (inactive) | 93.8 µM (inactive) | > 100 µM (inactive) | > 100 µM (inactive) | > 100 µM (inactive) | > 100 µM (inactive) | > 100 µM (inactive) | 19.4 µM (inactive)
10 | CSc1c([S+](C)[O-])c2ccccc2n1C (configuration not stated) | > 100 µM (inactive) |  | > 100 µM (inactive) | > 100 µM (inactive) | > 100 µM (inactive) | > 100 µM (inactive) | > 100 µM (inactive) | > 100 µM (inactive) | > 100 µM (inactive) | > 100 µM | > 100 µM (inactive) | > 100 µM (inactive) | > 100 µM (inactive) | > 100 µM (inactive) | > 100 µM (inactive) | > 100 µM (inactive) | > 100 µM (inactive) | > 100 µM (inactive) | > 100 µM (inactive) | 10.8 µM (inactive)
11 | COC(=O)[C@]12CSC[C@H]1C[C@H](c1ccccc1OC)N2 | > 100 µM (inactive) | > 100 µM (inactive) | > 100 µM (inactive) | > 100 µM (inactive) | > 100 µM (inactive) | > 100 µM (inactive) | > 100 µM (inactive) | > 100 µM (inactive) | > 100 µM (inactive) | > 100 µM | > 100 µM (inactive) | > 100 µM (inactive) |  | > 100 µM (inactive) | > 100 µM (inactive) | > 100 µM (inactive) | > 100 µM (inactive) | > 100 µM (inactive) | > 100 µM (inactive) | > 100 µM (inactive)
12 | COc1ccc(Cn2c3c(cc(OS(=O)(=O)C(F)(F)F)c2=O)Cc2ccccc2-3)cc1 | 10.3 µM (inactive) | 24.9 µM (inactive) | 19.3 µM (inactive) | 4.36 µM (inactive) | 29.9 µM (inactive) |  | 9.95 µM (inactive) | 18.7 µM (inactive) | 20.4 µM (inactive) | 3.22 µM | 12 µM (inactive) | > 50 µM (inactive) | > 50 µM (inactive) | 45.6 µM (inactive) | 10.4 µM (inactive) | 3.56 µM (inactive) | 21.6 µM (inactive) | > 50 µM (inactive) | 21.5 µM (inactive) | > 50 µM (inactive)
13 | CC(C)OP(=O)(OC(C)C)C(C(F)(F)F)C(F)(F)F | > 100 µM (inactive) | > 100 µM (inactive) | > 100 µM (inactive) | > 100 µM (inactive) | > 100 µM (inactive) | > 100 µM (inactive) | > 100 µM (inactive) | > 100 µM (inactive) | > 100 µM (inactive) | > 100 µM | > 100 µM (inactive) |  | > 100 µM (inactive) | > 100 µM (inactive) | > 100 µM (inactive) |  | > 100 µM (inactive) | > 100 µM (inactive) | > 100 µM (inactive) | > 100 µM (inactive)
14 | CC1OC(OC2C(CO)OC(O[C@H]3CC[C@@]4(C)C(=CC[C@H]5[C@@H]6C[C@@H]7O[C@](O)(CC[C@@H](C)COC8OC(CO)C(O)C(O)C8O)[C@@H](C)[C@@H]7[C@@]6(C)CC[C@@H]54)C3)C(OC3OC(C)C(O)C(O)C3O)C2O)C(O)C(O)C1O (some centres not stated) | 1.95 µM (inactive) | 3.88 µM (inactive) | 3.06 µM (inactive) | 3.23 µM (inactive) | 2.4 µM (inactive) |  | 2.56 µM (inactive) | 2.46 µM (inactive) | 9.38 µM (inactive) | 1.89 µM | 1.58 µM (inactive) | 6.11 µM (inactive) | 33.1 µM (inactive) | 4.98 µM (inactive) | 4.21 µM (inactive) | 1.88 µM (inactive) | 5.28 µM (inactive) | 2.41 µM (inactive) | 5.07 µM (inactive) | 1.48 µM (inactive)
15 | CC(=O)NC(C)(C)C1CC=C(C)/C(=N\O)C1 (configuration not stated) | > 100 µM (inactive) | > 100 µM (inactive) | > 100 µM (inactive) | > 100 µM (inactive) |  | > 100 µM (inactive) | > 100 µM (inactive) | > 100 µM (inactive) | > 100 µM (inactive) | > 100 µM | > 100 µM (inactive) | > 100 µM (inactive) |  |  | > 100 µM (inactive) | > 100 µM (inactive) |  | > 100 µM (inactive) | > 100 µM (inactive) | > 100 µM (inactive)
